Data published in publication PMC9742383, “From tryptamine to the discovery of efficient multi-target directed ligands against cholinesterase-associated neurodegenerative disorders” (Frontiers in Pharmacology, 2022).
Read-outs that look alike come from different tables or passages of the source.

Experiments:
BuChE [1] = biological target: T1, BuChE (Equus caballus, UniProt P81908); test: Ellman colorimetric assay; type: biochemical; set-up: gene BCHE; native enzyme from equine serum, purchased from Sigma-Aldrich
AChE = biological target: T2, AChE (Electrophorus electricus, UniProt O42275); test: Ellman colorimetric assay; type: biochemical
T2 construct: native enzyme, Type V-S lyophilized powder, Sigma-Aldrich

BuChE [2] = biological target: T1, BuChE; test: time-dependent Ellman assay, kobs analysis; set-up: gene BCHE; conditions: read-out: kc; equilibrium constant of reversible step before carbamylation; covalent
in vitro [3] = test: in vitro; set-up: MTT cytotoxicity, absorbance at 570 nm, HT-22 mouse hippocampal neuronal cells; conditions: mouse, read-out: IC50 ± SD / HT-22 ^a
Description: The cell lines present in this study were purchased from the China Center for Type Collection (CCTCC, China). For cytotoxicity assay, HT-22, BV2, SH-SY5Y, HepG2, and LO2 cells were incubated in 96-well plates at the density of 5 × 10³ per well. After incubation for 12 h at 37°C, the tested compounds with the required concentrations were added to the corresponding wells and continuously incubated for 24 h at 37°C. Then, the prepared MTT (3-[4,5-dimethyl-2-thiazolyl]-2,5-diphenyl-2H-tetrazolium bromide) solution was added to each well and co-incubated for another 4 h at 37°C. Then, the supernatant was removed, and 100 μl DMSO was added to each well. The OD value of each well was detected at 570 nm using a microplate reader (Bio-Rad Laboratories, CA, United States). The IC50 values were calculated using IBM SPSS Statistics 25.0 software. All experiments were performed in triplicate, and the results were shown as the mean ± SD. In order to explore the applicability of the synthesized CTDs in neurological diseases, the neuronal cytotoxicity of the synthesized compounds was evaluated on mouse hippocampal neuronal cell line HT-22. […] In view of these CTDs endowed strong inhibition efficacy on BuChE, we preliminarily evaluated their safety range by comparing their IC50 values on cytotoxicity and BuChE inhibitory activity. […] Therefore, the series of compounds with dibenzyl groups, especially compounds bearing ring carbon alkyl chains (2f-2h) and tertiary amine residues (2j-2u) with little cytotoxicity on HT-22, can be considered as potential lead building blocks for further structure optimization to develop novel effective agents against neurological diseases.

in vitro [4] = test: in vitro; set-up: species or system SH-SY5Y, HepG2; MTT cytotoxicity, absorbance at 570 nm; conditions: human, lo2 cells; read-out: ^a IC50 ± SD (μM) / LO2
Description: (§1) The cell lines present in this study were purchased from the China Center for Type Collection (CCTCC, China). For cytotoxicity assay, HT-22, BV2, SH-SY5Y, HepG2, and LO2 cells were incubated in 96-well plates at the density of 5 × 10³ per well. After incubation for 12 h at 37°C, the tested compounds with the required concentrations were added to the corresponding wells and continuously incubated for 24 h at 37°C. Then, the prepared MTT (3-[4,5-dimethyl-2-thiazolyl]-2,5-diphenyl-2H-tetrazolium bromide) solution was added to each well and co-incubated for another 4 h at 37°C. Then, the supernatant was removed, and 100 μl DMSO was added to each well. The OD value of each well was detected at 570 nm using a microplate reader (Bio-Rad Laboratories, CA, United States). The IC50 values were calculated using IBM SPSS Statistics 25.0 software. All experiments were performed in triplicate, and the results were shown as the mean ± SD. In order to further evaluate the applicability of the compounds with dibenzyl groups for neurological diseases, we also tested the cytotoxicity of the selected compounds (2f, 2h, 2j, 2m, 2o-2r, 2t, and 2u) bearing little toxicity on HT-22 cells, microglia cell line BV2, and human neuroblastoma cell line SH-SY5Y, which are widely used in the study of neurological diseases. […] In view of some carbamate-based ChE inhibitors reported to be hepatotoxic, we further performed the preliminary evaluation of the hepatotoxicity of the selected compounds on human normal liver cell line LO2 and human hepatocellular carcinoma cell line HepG2.

in vitro [5] = test: in vitro; set-up: species or system LO2, HepG2; MTT cytotoxicity, absorbance at 570 nm; conditions: human, sh-sy5y; read-out: ^a IC50 ± SD (μM) / SH-SY5Y
Description: as §1

in vitro [6] = test: in vitro; set-up: species or system SH-SY5Y, LO2; MTT cytotoxicity, absorbance at 570 nm; conditions: human, read-out: ^a IC50 ± SD (μM) / HepG2
Description: as §1

[7] = read-out: IC50 ± SD ^a / BuChE ^a
[8] = read-out: IC50 ± SD ^a / AChE ^a
[9] = ht-22 hippocampal neuronal cells

T1 sequence (P81908 whole entry): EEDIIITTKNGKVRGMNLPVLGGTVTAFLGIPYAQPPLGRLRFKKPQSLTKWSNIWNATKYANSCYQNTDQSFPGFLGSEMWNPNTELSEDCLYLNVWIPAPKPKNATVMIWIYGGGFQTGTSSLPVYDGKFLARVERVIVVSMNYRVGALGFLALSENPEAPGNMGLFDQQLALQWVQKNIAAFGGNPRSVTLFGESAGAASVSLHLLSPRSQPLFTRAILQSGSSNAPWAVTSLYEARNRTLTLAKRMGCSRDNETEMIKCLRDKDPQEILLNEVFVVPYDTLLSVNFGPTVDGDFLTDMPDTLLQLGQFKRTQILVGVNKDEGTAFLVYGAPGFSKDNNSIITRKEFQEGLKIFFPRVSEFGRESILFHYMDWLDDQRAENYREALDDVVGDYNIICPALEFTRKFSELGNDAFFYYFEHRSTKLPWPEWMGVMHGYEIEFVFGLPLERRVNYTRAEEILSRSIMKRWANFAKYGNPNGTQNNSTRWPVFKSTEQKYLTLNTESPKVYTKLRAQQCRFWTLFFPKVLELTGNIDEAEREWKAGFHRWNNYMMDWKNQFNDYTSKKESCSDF
T2 sequence (O42275 24-633): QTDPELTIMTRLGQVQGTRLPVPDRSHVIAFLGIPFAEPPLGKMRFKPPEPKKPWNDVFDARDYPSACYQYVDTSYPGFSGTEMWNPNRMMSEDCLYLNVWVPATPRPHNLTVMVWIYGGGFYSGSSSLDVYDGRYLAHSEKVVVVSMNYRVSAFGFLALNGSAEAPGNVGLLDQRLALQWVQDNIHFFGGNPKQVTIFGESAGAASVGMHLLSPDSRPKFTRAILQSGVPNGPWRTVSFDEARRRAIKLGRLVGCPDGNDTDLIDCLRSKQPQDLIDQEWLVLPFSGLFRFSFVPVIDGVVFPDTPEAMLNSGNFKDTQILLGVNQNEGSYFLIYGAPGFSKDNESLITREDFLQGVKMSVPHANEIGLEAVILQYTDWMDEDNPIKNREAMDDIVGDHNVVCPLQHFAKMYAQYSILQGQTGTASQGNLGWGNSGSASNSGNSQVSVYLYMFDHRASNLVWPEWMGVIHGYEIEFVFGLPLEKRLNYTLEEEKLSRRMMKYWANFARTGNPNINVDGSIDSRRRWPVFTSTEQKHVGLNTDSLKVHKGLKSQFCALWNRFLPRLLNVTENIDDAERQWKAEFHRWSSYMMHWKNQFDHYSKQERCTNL

O=C(NC1CC1)Oc1ccc2[nH]cc(CCNCc3ccccc3)c2c1 [3f, 3-(2-(benzylamino)ethyl)-1H-indol-5-yl cyclopropylcarbamate]
IC50 (BuChE [1]; [7]): 0.0157 ± 0.0013 µM
IC50 (AChE; [8]): 3.17 µM
KI (inactivation) (BuChE [2]): 0.00576 µM
CC50 at 24 h (in vitro [3]; [9]): 15 ± 1.17 µM

CCCCN(CCCC)C(=O)Oc1ccc2[nH]cc(CCN(Cc3ccccc3)Cc3ccccc3)c2c1 [2m, 3-(2-(dibenzylamino)ethyl)-1H-indol-5-yl dibutylcarbamate]
IC50 (BuChE [1]; read-out: IC50 ± SD / BuChE ^a): 0.0138 ± 0.00067 µM
CC50 at 24 h (in vitro [4]): > 100 µM
CC50 at 24 h (in vitro [5]): > 100 µM
IC50 (AChE; read-out: IC50 ± SD / AChE ^a): > 100 µM
CC50 at 24 h (in vitro [6]; hepg2): > 100 µM
CC50 at 24 h (in vitro [3]; ht-22): 65.28 ± 0.09 µM

O=C(Oc1ccc2[nH]cc(CCN(Cc3ccccc3)Cc3ccccc3)c2c1)N1CCCCCC1 [2t, 3-(2-(dibenzylamino)ethyl)-1H-indol-5-yl azepane-1-carboxylate]
IC50 (BuChE [1]; read-out: IC50 ± SD / BuChE ^a): 0.068 ± 0.00842 µM
CC50 at 24 h (in vitro [4]): > 100 µM
IC50 (AChE; read-out: IC50 ± SD / AChE ^a): > 100 µM
CC50 at 24 h (in vitro [6]; hepg2): > 100 µM
CC50 at 24 h (in vitro [3]; ht-22): > 100 µM

CN(C)C(=O)Oc1ccc2[nH]cc(CCN(Cc3ccccc3)Cc3ccccc3)c2c1 [2j, 3-(2-(dibenzylamino)ethyl)-1H-indol-5-yl dimethylcarbamate]
IC50 (BuChE [1]; read-out: IC50 ± SD / BuChE ^a): 0.00677 ± 0.00027 µM
CC50 at 24 h (in vitro [4]): > 100 µM
CC50 at 24 h (in vitro [5]): > 100 µM
IC50 (AChE; read-out: IC50 ± SD / AChE ^a): > 100 µM
CC50 at 24 h (in vitro [6]; hepg2): > 100 µM
CC50 at 24 h (in vitro [3]; ht-22): > 100 µM

O=C(Oc1ccc2[nH]cc(CCN(Cc3ccccc3)Cc3ccccc3)c2c1)N1CCOCC1 [2u, 3-(2-(dibenzylamino)ethyl)-1H-indol-5-yl morpholine-4-carboxylate]
IC50 (BuChE [1]; read-out: IC50 ± SD / BuChE ^a): 0.114 ± 0.00145 µM
CC50 at 24 h (in vitro [4]): > 100 µM
CC50 at 24 h (in vitro [5]): > 100 µM
IC50 (AChE; read-out: IC50 ± SD / AChE ^a): > 100 µM
CC50 at 24 h (in vitro [6]; hepg2): > 100 µM
CC50 at 24 h (in vitro [3]; ht-22): 78.7 ± 3.79 µM

O=C(NC1CCCCC1)Oc1ccc2[nH]cc(CCN(Cc3ccccc3)Cc3ccccc3)c2c1 [2h, 3-(2-(dibenzylamino)ethyl)-1H-indol-5-yl cyclohexylcarbamate]
IC50 (BuChE [1]; read-out: IC50 ± SD / BuChE ^a): 0.016 ± 0.00032 µM
CC50 at 24 h (in vitro [4]): > 100 µM
CC50 at 24 h (in vitro [5]): > 100 µM
IC50 (AChE; read-out: IC50 ± SD / AChE ^a): > 100 µM
CC50 at 24 h (in vitro [3]; ht-22): 74.2 ± 1.5 µM

O=C(Oc1ccc2[nH]cc(CCNCc3ccccc3)c2c1)N1CCCCC1 [3s, 3-(2-(benzylamino)ethyl)-1H-indol-5-yl piperidine-1-carboxylate]
IC50 (BuChE [1]; [7]): 0.0339 ± 0.00214 µM
IC50 (AChE; [8]): 9.08 µM
KI (inactivation) (BuChE [2]): 0.00508 µM
CC50 at 24 h (in vitro [3]; [9]): 13.8 ± 0.91 µM

O=C(Oc1ccc2[nH]cc(CCN(Cc3ccccc3)Cc3ccccc3)c2c1)N1CCCC1 [2r, 3-(2-(dibenzylamino)ethyl)-1H-indol-5-yl pyrrolidine-1-carboxylate]
IC50 (BuChE [1]; read-out: IC50 ± SD / BuChE ^a): 0.0205 ± 0.0017 µM
CC50 at 24 h (in vitro [4]): > 100 µM
CC50 at 24 h (in vitro [5]): > 100 µM
IC50 (AChE; read-out: IC50 ± SD / AChE ^a): > 100 µM
CC50 at 24 h (in vitro [6]; hepg2): > 100 µM
CC50 at 24 h (in vitro [3]; ht-22): 79.8 ± 5.36 µM

CCCCCCCNC(=O)Oc1ccc2[nH]cc(CCN(Cc3ccccc3)Cc3ccccc3)c2c1 [2e, 3-(2-(dibenzylamino)ethyl)-1H-indol-5-yl heptylcarbamate]
IC50 (BuChE [1]; read-out: IC50 ± SD / BuChE ^a): 0.00142 ± 4e-06 µM
IC50 (AChE; read-out: IC50 ± SD / AChE ^a): > 100 µM
KI (inactivation) (BuChE [2]): 0.00255 µM
CC50 at 24 h (in vitro [3]; ht-22): 35.6 ± 2.45 µM

O=C(Oc1ccc2[nH]cc(CCN(Cc3ccccc3)Cc3ccccc3)c2c1)N1CCC1 [2q, 3-(2-(dibenzylamino)ethyl)-1H-indol-5-yl azetidine-1-carboxylate]
IC50 (BuChE [1]; read-out: IC50 ± SD / BuChE ^a): 0.00165 ± 3e-05 µM
IC50 (AChE; read-out: IC50 ± SD / AChE ^a): 0.742 ± 0.00987 µM
CC50 at 24 h (in vitro [6]; hepg2 cells): > 100 µM
CC50 at 24 h (in vitro [3]; ht-22): 86.5 ± 1.82 µM

CN(C(=O)Oc1ccc2[nH]cc(CCN(Cc3ccccc3)Cc3ccccc3)c2c1)c1ccccc1 [2p, 3-(2-(dibenzylamino)ethyl)-1H-indol-5-yl methyl(phenyl)carbamate]
IC50 (BuChE [1]; read-out: IC50 ± SD / BuChE ^a): 0.0189 ± 0.00134 µM
CC50 at 24 h (in vitro [4]): > 100 µM
CC50 at 24 h (in vitro [5]): > 100 µM
IC50 (AChE; read-out: IC50 ± SD / AChE ^a): > 100 µM
CC50 at 24 h (in vitro [6]; hepg2 cells): > 100 µM
CC50 at 24 h (in vitro [3]; ht-22): > 100 µM

CON(C)C(=O)Oc1ccc2[nH]cc(CCN(Cc3ccccc3)Cc3ccccc3)c2c1 [2o, 3-(2-(dibenzylamino)ethyl)-1H-indol-5-yl methoxy(methyl)carbamate]
IC50 (BuChE [1]; read-out: IC50 ± SD / BuChE ^a): 0.00865 ± 0.00034 µM
CC50 at 24 h (in vitro [5]): > 100 µM
IC50 (AChE; read-out: IC50 ± SD / AChE ^a): 2.93 µM
CC50 at 24 h (in vitro [3]; ht-22): 72.1 ± 2.23 µM

CCN(C)C(=O)Oc1cccc([C@H](C)N(C)C)c1 [rivastigmine]
CC50 at 24 h (in vitro [4]): > 100 µM
CC50 at 24 h (in vitro [5]): > 100 µM
KI (inactivation) (BuChE [2]): 0.0559 µM
CC50 at 24 h (in vitro [6]; hepg2): > 100 µM

CCCCCNC(=O)Oc1ccc2[nH]cc(CCNCc3ccccc3)c2c1 [3c, 3-(2-(benzylamino)ethyl)-1H-indol-5-yl pentylcarbamate]
IC50 (BuChE [1]; [7]): 0.0239 ± 0.0029 µM
IC50 (AChE; [8]): 1.13 µM
KI (inactivation) (BuChE [2]): 0.0737 µM
CC50 at 24 h (in vitro [3]; [9]): 10.6 ± 0.24 µM

CCCCCCCNC(=O)Oc1ccc2[nH]cc(CCN)c2c1 [4e, 3-(2-aminoethyl)-1H-indol-5-yl heptylcarbamate]
IC50 (BuChE [1]; BTCI substrate, […] min preincubation […] °C, pH […], pseudo-irreversible carbamate, covalent, read-out: IC50 ± SD ^a / BuChE ^a): 0.0101 ± 0.00083 µM
IC50 (AChE; ATCI substrate, […] min preincubation […] °C, pH […], read-out: IC50 ± SD ^a / AChE ^a): > 100 µM
KI (inactivation) (BuChE [2]): 0.00302 µM
CC50 at 24 h (in vitro [3]; [9]): 26.1 ± 2.29 µM

O=C(NC1CC1)Oc1ccc2[nH]cc(CCN(Cc3ccccc3)Cc3ccccc3)c2c1 [2f, 3-(2-(dibenzylamino)ethyl)-1H-indol-5-yl cyclopropylcarbamate]
IC50 (BuChE [1]; read-out: IC50 ± SD / BuChE ^a): 0.00875 ± 0.00023 µM
IC50 (AChE; read-out: IC50 ± SD / AChE ^a): > 100 µM
KI (inactivation) (BuChE [2]): 0.00159 µM
CC50 at 24 h (in vitro [3]; ht-22): 60.2 ± 3.85 µM

CCCCCNC(=O)Oc1ccc2[nH]cc(CCN(Cc3ccccc3)Cc3ccccc3)c2c1 [2c, 3-(2-(dibenzylamino)ethyl)-1H-indol-5-yl pentylcarbamate]
IC50 (BuChE [1]; read-out: IC50 ± SD / BuChE ^a): 0.0021 ± 0.00014 µM
IC50 (AChE; read-out: IC50 ± SD / AChE ^a): > 100 µM
KI (inactivation) (BuChE [2]): 0.00705 µM
CC50 at 24 h (in vitro [3]; ht-22): 37.47 ± 0.23 µM
